The text below walks through data of patent US5641781A, “Topical ophthalmic composition comprising a 2-[4-(azolylbutyl)piperazinylmethyl]benzimidazole derivative, in particular for the treatment of allergic conjunctivitis” (Laboratorios Del Dr. Esteve, S.A., priority 1995, dated 1997).

For this assay, the system named is guinea pig conjunctiva. Kind of assay: Microvascular permeability in guinea pig conjunctiva induced by histamine (extravasation of Evans blue dye), topical ocular administration. To be noted: for % change (degree of permeability): topical, vs vehicle; for ED50 (concentration producing 50% inhibition of vascular permeability): Table 3. The format is in vivo, guinea pig (male VAF Dunkin/Hartley). Here is the method:
The ocular antihistaminic topical effect of the products which form the subject of the present invention was evaluated by means of a model of microvascular permeability in guinea pig conjunctiva, induced by histamine. In this animal model of ocular antiallergic activity, the power, the fifty percent effective dose and the duration of action are measured.
Microvascular Permeability in Guinea Pig Conjunctiva Induced by Histamine (Extravasation of Evans Blue Dye)
Male VAF Dunkin/Hartley guinea pigs (6 per group) are injected intravenously, into the marginal vein of the ear, with 1.0 ml of Evans blue (1.0 mg/ml). Approximately 15 minutes after injection of the dye, 20 μl of the appropriate concentration of the compound of Example 1 or of the vehicle are applied topically to an eye of each of the animals. 2 minutes, 30 minutes and 6 hours after the topical application, the guinea pigs are anaesthetized and histamine (300 ng/10 μl) is administered to them subconjunctivally. Thirty minutes later the animals are sacrificed by inhalation of CO2 and the area of extravasation of the Evans blue is measured. The area of the blue dye is multiplied by the intensity of the colour, graded from 1 to 6, in order to produce a value of permeability for each animal (Yauni et al., Int. Arch. Allergy Immunol., 1993, 101, 102-106). The values obtained by the groups treated are then compared with those obtained with the group treated with the vehicle using Dunnett's "t" test (Dunnett C. W. "A multiple comparison procedure for comparing treatments with a control", J. Am Star. Assoc 1955, 50, 1096-1121)
This inhibition is observed in a range of concentrations from 0.1% to 0.0001% weight/volume.

As to `CCOCCn1c(CN2CCN(CCCCn3cccn3)CC2)nc2ccccc21` [Example 1], the “% change (degree of permeability)” value is on record as -6% (0.00001 % (w/v), 30'); -3% (0.00001 % (w/v), 6 h); -45% (0.0001 % (w/v), 30'); -36% (0.0001 % (w/v), 6 h); -41% (0.001 % (w/v), 2'); -66% (0.001 % (w/v), 30'). Moreover, the “% change (degree of permeability)” value (0.001 % (w/v), 6 h) was -66%; the “% change (degree of permeability)” value (0.01 % (w/v), 2') was -66%; the “% change (degree of permeability)” value (0.01 % (w/v), 30') was -85%; the “% change (degree of permeability)” value (0.01 % (w/v), 6 h) is recorded as -91%; the “% change (degree of permeability)” value (0.1 % (w/v), 2') was -75%; the “% change (degree of permeability)” value (0.1 % (w/v), 30') is given as -100%. Also, the “% change (degree of permeability)” value (0.1 % (w/v), 6 h) is recorded as -100%. The “ED50 (concentration producing 50% inhibition of vascular permeability)” value is, setting by setting: (2') 0.0024 % w/v; (30') 0.00035 % w/v; (6 h) 0.00043 % w/v. In addition, the “ED50 (concentration which produces a 50% inhibition of the vascular permeability)” value was 0.0024 w/v (at 2 minutes), 0.00035 w/v (at 30 minutes) and 0.00043 w/v (at 8 hours). Besides, the “antihistaminic activity and duration of action (in words)” value (ocular topical administration) is given as “powerful antihistaminic activity accompanied by an exceptionally long duration of action”. Besides, the “inhibition of vascular permeability induced by histamine (in words)” value (ocular topical administration) was “inhibits, significantly and in a dose-dependent manner”.
